What was measured:
[1] = water-soluble sodium carboxylate salt; cited from earlier work
[2] = Plasma levels of 9NC after i.s. administration, share in closed lactone form; type: in vivo; conditions: species not given, mice from b8 and b10
[3] = Plasma levels of 9NC after oral administration to Phase I clinical trial patients, share in closed lactone form; type: in vivo, humans; conditions: on average
human tumor xenografts [4] = test: Antitumor activity against human tumor xenografts in mice; type: in vivo
Description: (§1) Clearly, there is a pressing need for a modification which will slow and delay the lactone ring opening upon its entrance into the blood circulation.

tumors = test: Clinical responses in Phase I patients; type: in vivo; conditions: in humans
Description: as §1

human tumor xenografts [5] = conditions: in mice; cited from earlier work
[6] = Pharmacokinetics of CPT in human plasma, lactone half-life; type: in vitro ADME
[7] = Plasma CPT after intrastomach administration in mice, closed lactone share of AUC; type: in vivo
[8] = Plasma CPT after oral administration in humans, closed lactone share of AUC; type: in vivo

Molecule: CC[C@@](O)(C(=O)[O-])c1cc2n(c(=O)c1CO)Cc1cc3ccccc3nc1-2.[Na+] [sodium carboxylate salt]
- anticancer activity in clinical evaluation [1]: devoid of anticancer activity
- toxicity in clinical evaluation [1]: severe toxicity

Molecule: CC[C@@]1(O)C(=O)OCc2c1cc1n(c2=O)Cc2cc3c([N+](=O)[O-])cccc3nc2-1 [Example 9NC, 9-nitrocamptothecin]
- share of drug present in the plasma in the closed lactone form [2]: 57%
- share of drug present in plasma in the closed lactone form [3]: ~3%
- complete tumor regressions (human tumor xenografts [4]): 32/32
- complete tumor regressions (tumors): 2/32
- potency relative to CPT against human tumor xenografts (human tumor xenografts [5]): 2-3 times

Molecule: 20(S)-camptothecin [CPT]
- half-life time of the drug with lactone intact [6]: 30 min
- closed lactone form, share of the area under the curve [7]: approximately 54%
- closed lactone ring form, share of the area under the curve [8]: about 0.4%
